Source: paper doi:10.1101/2025.02.17.638454, “Synergistic RAS-MAPK and AKT Activation in MYC-Driven Tumors via Adjacent PVT1 Rearrangements” (bioRxiv, 2025)
No end group written: not given here.

Experiments:
Type in all cases: cell-based, human
[1] = system: MYC; experiment: q-RT-PCR of MYC transcript in COLO-320DM; conditions: COLO320DM, induction of HNB (-/+ Dox); n=3, unpaired t-test, 0.0011
Description: (§1) Total RNA was extracted with the TRIzol (Roche, Indianapolis, IN) as described by the manufacturer and complementary DNA synthesis, 1 μg of total RNA was reverse transcribed by using the GoScriptTM Reverse Transcription Mix, Random Primer Protocol (Promega, Madison, WI). Real-time PCR was run in triplicate using PowerUpTM SYBRTM Green Master Mix (Thermo Fisher Scientific), following the manufacturer’s instructions. Real-time PCR amplification monitoring was performed using the CFX96 Touch Real-Time PCR Detection System (Bio-Rad). Data were expressed as relative mRNA levels normalized to the GAPDH, served as endogenous normalization control expression levels in each sample, and are represented as mean ± standard error of the mean between 2 independent experiments unless otherwise indicated in the figure legend. The primer sequences are listed in the Supplementary Table.
(§2) The HNB ORF and eGFP (control) were cloned in an inducible lentivirus expression, TRE-gateway plasmid (pLIX_403, Addgene, #41395). Lentivirus was produced in HEK293T cells using the protocol described above. […] The protein lysates were collected and quantified using the previously described protocol. […] Bound proteins were detected with horseradish-peroxidase–conjugated secondary antibodies (Cell Signaling Technologies) and SuperSignal West Femto (Thermo Fisher Scientific). […]

[2] = system: MYC; experiment: q-RT-PCR of MYC transcript in D458; conditions: D458, induction of HNB (-/+ Dox); n=3, unpaired t-test
Description: as §1, §2

[3] = system: HALLMARK_MYC_TARGETS; experiment: GSEA MYC targets, COLO320DM; conditions: si.CircPVT1 vs si.Ctrl
Source text: (§3) RNAseq processing: Raw reads were mapped to the hg19 human reference genome using the STAR aligner (v.2.5.0a) 66. PCR-duplicated reads and low mapping quality reads (MQ score below 20) were removed using Picard tools and SAMtools, respectively. Aligned reads were counted using htseq-count (v.0.6.1p1) 69 and normalized according to size factors method from DESeq2 70. We used fold change ≥2 and FDR <0.05 as the determination of differentially expressed genes (DEG). […]
Supplementary Figure 9: Gene set enrichment analysis scores (GSEA) analysis for MYC targets genes in COLODM320 (A,B) and SK-PN-DW (C,D) treated with si.CircPVT 1. si.Ctrl was used as control . n=3, for each treatment condition .
(also on this page, place not known: Enrichment Score Enrichment Score si.CircPVT1. control. condition. Enrichment Score Enrichment Score .CC-BY licenseavailable preprintthis https://doi.org/10.1101/2025.02.17.638454doi:) […]

[4] = system: HALLMARK_MTORC1_SIGNALING; experiment: GSEA MTORC1 signaling, COLO320DM; conditions: si.CircPVT1 vs si.Ctrl, n=3, Padj = 0.0188
Source text: as §3, with “(DEG). Statistical analysis and plots were performed inside R environment version 3.1.0. upload files)” for “(DEG).”
bioRxiv preprint doi: https://doi.org/10.1101/2025.02.17.638454; this version posted February 22, 2025. The copyright holder for this preprint (which was not certified by peer review) is the author/funder, who has granted bioRxiv a license to display the preprint in perpetuity. It is made available under a CC-BY 4.0 International license . […]
Supplementary Figure 11: Gene set enrichment analysis scores (GSEA) analysis of genes involved in MTORC 1 signaling in COLO320DM (A) and SK-PN-DW (B) treated with si.CircPVT 1. si.Ctrl was used as control. n=3, for each treatment condition .
(also on this page, place not known: SK-PN-DWB MTORC1 si.CircPVT1. condition. Enrichment Score Enrichment Score .CC-BY licenseavailable preprintthis https://doi.org/10.1101/2025.02.17.638454doi:) […]

[5] = system: MYC targets genes; experiment: GSEA MYC targets, D458; conditions: D458, si.CircPVT1 vs si.Ctrl, n=3
Source text: RNAseq processing: Raw reads were mapped to the hg19 human reference genome using the STAR aligner (v.2.5.0a) 66. PCR-duplicated reads and low mapping quality reads (MQ score below 20) were removed using Picard tools and SAMtools, respectively. Aligned reads were counted using htseq-count (v.0.6.1p1) 69 and normalized according to size factors method from DESeq2 70. We used fold change ≥2 and FDR <0.05 as the determination of differentially expressed genes (DEG). Statistical analysis and plots were performed inside R environment version 3.1.0. upload files)

MKTQLGAVKGFLHV [HNB]
MYC mRNA level [1]: significantly reduced MYC expression at the mRNA as well as the protein levels
MYC mRNA level [2]: significantly reduced MYC expression at the mRNA as well as the protein levels

si.CircPVT1: siRNA targeting the junction sequence of CircPVT1, 5’-UGGGCUUGAGGCCUGAUCUUU-3’ (other strand not given here)
NES, HALLMARK_MYC_TARGETS_V1 ([3]; n=3, Padj = 0.009): -1.990
NES, HALLMARK_MYC_TARGETS_V2 ([3]; n=3, Padj = 0.017): -1.733
NES, HALLMARK_MTORC1_SIGNALING [4]: -1.506
MYC targets (GSEA) [5]: depletion of MYC targets
